Assays:
Type in all cases: in vivo
[1] = tested on: barnyardgrass (Echinochloa crus-galli); assay: Test B flooded paddy test, barnyardgrass; details: 500 g ai/ha; applied to paddy water at 2-leaf stage; 13 to 15 d; scale 0 no effect to 100 complete control
Procedure: (§1) Plant species in the flooded paddy test selected from rice (Oryza sativa), sedge, umbrella (small-flower umbrella sedge, Cyperus difformis), ducksalad (Heteranthera limosa), and barnyardgrass (Echinochloa crus-galli) were grown to the 2-leaf stage for testing. At time of treatment, test pots were flooded to 3 cm above the soil surface, treated by application of test compounds directly to the paddy water, and then maintained at that water depth for the duration of the test. Treated plants and controls were maintained in a greenhouse for 13 to 15 d, after which time all species were compared to controls and visually evaluated. Plant response ratings, summarized in Table B, are based on a scale of 0 to 100 where 0 is no effect and 100 is complete control. A dash (-) response means no test result.

[2] = tested on: ducksalad (Heteranthera limosa); assay: Test B flooded paddy test, ducksalad; details: 500 g ai/ha; applied to paddy water at 2-leaf stage; 13 to 15 d; scale 0 no effect to 100 complete control
Procedure: as §1

rice (Oryza sativa) = assay: Test B flooded paddy test, rice; details: 500 g ai/ha; applied to paddy water at 2-leaf stage; 13 to 15 d; scale 0 no effect to 100 complete control
Procedure: as §1

[3] = tested on: sedge, umbrella (small-flower umbrella sedge, Cyperus difformis); assay: Test B flooded paddy test, umbrella sedge; details: 500 g ai/ha; applied to paddy water at 2-leaf stage; 13 to 15 d; scale 0 no effect to 100 complete control
Procedure: as §1

[4] = tested on: barnyardgrass (Echinochloa crus-galli); assay: Test A preemergence, barnyardgrass; details: visual rating after approx. 10 d, 0 to 100 scale, 0 no effect, 100 complete control
Description: (§2) Seeds of plant species selected from barnyardgrass (Echinochloa crus-galli), crabgrass (large crabgrass, Digitaria sanguinalis), kochia (Kochia scoparia), ragweed (common ragweed, Ambrosia elatior), morningglory (Ipomoea spp.), velvetleaf (Abutilon theophrasti), ryegrass, Italian (Italian ryegrass, Lolium multiflorum), foxtail, giant (giant foxtail, Setaria faberii), wheat (Triticum aestivum), corn (Zea mays), and pigweed (Amaranthus retroflexus), were planted into a blend of loam soil and sand and treated preemergence with a directed soil spray using test chemicals formulated in a non-phytotoxic solvent mixture which included a surfactant. At the same time, plants selected from these crop and weed species and also blackgrass (Alopecurus myosuroides), and galium (catchweed bedstraw, Galium aparine), were planted in pots containing the same blend of loam soil and sand and treated with postemergence applications of test chemicals formulated in the same manner. Plants ranged in height from 2 to 10 cm and were in the one- to two-leaf stage for the postemergence treatment. Treated plants and untreated controls were maintained in a greenhouse for approximately 10 d, after which time all treated plants were compared to untreated controls and visually evaluated for injury. Plant response ratings, summarized in Table A, are based on a 0 to 100 scale where 0 is no effect and 100 is complete control. A dash (-) response means no test result.

kochia (Kochia scoparia) [5] = assay: Test A preemergence, kochia; details: visual rating after approx. 10 d, 0 to 100 scale, 0 no effect, 100 complete control
Description: as §2

[6] = tested on: ragweed (common ragweed, Ambrosia elatior); assay: Test A preemergence, ragweed; details: visual rating after approx. 10 d, 0 to 100 scale, 0 no effect, 100 complete control
Description: as §2

[7] = tested on: ryegrass, Italian (Italian ryegrass, Lolium multiflorum); assay: Test A preemergence, Italian ryegrass; details: visual rating after approx. 10 d, 0 to 100 scale, 0 no effect, 100 complete control
Description: as §2

[8] = tested on: foxtail, giant (giant foxtail, Setaria faberii); assay: Test A preemergence, giant foxtail; details: visual rating after approx. 10 d, 0 to 100 scale, 0 no effect, 100 complete control
Description: as §2

[9] = tested on: pigweed (Amaranthus retroflexus); assay: Test A preemergence, pigweed; details: visual rating after approx. 10 d, 0 to 100 scale, 0 no effect, 100 complete control
Description: as §2

[10] = tested on: barnyardgrass (Echinochloa crus-galli); assay: Test A postemergence, barnyardgrass; details: visual rating after approx. 10 d, 0 to 100 scale, 0 no effect, 100 complete control
Description: as §2

kochia (Kochia scoparia) [11] = assay: Test A postemergence, kochia; details: visual rating after approx. 10 d, 0 to 100 scale, 0 no effect, 100 complete control
Description: as §2

[12] = tested on: ragweed (common ragweed, Ambrosia elatior); assay: Test A postemergence, ragweed; details: visual rating after approx. 10 d, 0 to 100 scale, 0 no effect, 100 complete control
Description: as §2

[13] = tested on: ryegrass, Italian (Italian ryegrass, Lolium multiflorum); assay: Test A postemergence, Italian ryegrass; details: visual rating after approx. 10 d, 0 to 100 scale, 0 no effect, 100 complete control
Description: as §2

[14] = tested on: foxtail, giant (giant foxtail, Setaria faberii); assay: Test A postemergence, giant foxtail; details: visual rating after approx. 10 d, 0 to 100 scale, 0 no effect, 100 complete control
Description: as §2

[15] = tested on: wheat (Triticum aestivum); assay: Test A postemergence, wheat; details: visual rating after approx. 10 d, 0 to 100 scale, 0 no effect, 100 complete control
Description: as §2

corn (Zea mays) = assay: Test A postemergence, corn; details: visual rating after approx. 10 d, 0 to 100 scale, 0 no effect, 100 complete control
Description: as §2

[16] = tested on: pigweed (Amaranthus retroflexus); assay: Test A postemergence, pigweed; details: visual rating after approx. 10 d, 0 to 100 scale, 0 no effect, 100 complete control
Description: as §2

[17] = tested on: blackgrass (Alopecurus myosuroides); assay: Test A postemergence, blackgrass; details: visual rating after approx. 10 d, 0 to 100 scale, 0 no effect, 100 complete control
Description: as §2

[18] = tested on: galium (catchweed bedstraw, Galium aparine); assay: Test A postemergence, galium; details: visual rating after approx. 10 d, 0 to 100 scale, 0 no effect, 100 complete control
Description: as §2

Row | Compound | Plant response rating, Flood, Barnyardgrass [1] | Plant response rating, Flood, Ducksalad [2] | Plant response rating, Flood, Rice (rice (Oryza sativa)) | Plant response rating, Flood, Sedge, Umbrella [3] | Plant response rating, Barnyardgrass ([4]; 125 g ai/ha) | Plant response rating, Barnyardgrass ([4]; 500 g ai/ha) | Plant response rating, Kochia (kochia (Kochia scoparia) [5]; 125 g ai/ha) | Plant response rating, Kochia (kochia (Kochia scoparia) [5]; 500 g ai/ha) | Plant response rating, Ragweed ([6]; 125 g ai/ha) | Plant response rating, Ragweed ([6]; 500 g ai/ha) | Plant response rating, Ryegrass, Italian ([7]; 125 g ai/ha) | Plant response rating, Ryegrass, Italian ([7]; 500 g ai/ha) | Plant response rating, Foxtail, Giant ([8]; 125 g ai/ha) | Plant response rating, Foxtail, Giant ([8]; 500 g ai/ha) | Plant response rating, Pigweed ([9]; 125 g ai/ha) | Plant response rating, Pigweed ([9]; 500 g ai/ha) | Plant response rating, Barnyardgrass ([10]; 125 g ai/ha) | Plant response rating, Barnyardgrass ([10]; 500 g ai/ha) | Plant response rating, Kochia (kochia (Kochia scoparia) [11]; 125 g ai/ha) | Plant response rating, Kochia (kochia (Kochia scoparia) [11]; 500 g ai/ha) | further results
1 | O=C(Nc1cccc(F)c1F)C1C(=O)OCC1c1cccc(C(F)(F)F)c1 (racemic) [Compound 12] | 0 | 0 | 0 | 0 | 20 | 30 | 0 | 20 | 0 | 0 | 0 | 20 | 30 | 60 | 0 | 0 | 40 | 40 | 0 | 0 | Plant response rating, Ragweed ([12]; 125 g ai/ha): 0; Plant response rating, Ragweed ([12]; 500 g ai/ha): 0; Plant response rating, Ryegrass, Italian ([13]; 125 g ai/ha): 0; Plant response rating, Ryegrass, Italian ([13]; 500 g ai/ha): 0; Plant response rating, Foxtail, Giant ([14]; 125 g ai/ha): 30; Plant response rating, Foxtail, Giant ([14]; 500 g ai/ha): 70; Plant response rating, Wheat ([15]; 125 g ai/ha): 0; Plant response rating, Wheat ([15]; 500 g ai/ha): 0; Plant response rating, Corn (corn (Zea mays); 125 g ai/ha): 0; Plant response rating, Corn (corn (Zea mays); 500 g ai/ha): 0; Plant response rating, Pigweed ([16]; 125 g ai/ha): 0; Plant response rating, Pigweed ([16]; 500 g ai/ha): 0; Plant response rating, Blackgrass ([17]; 125 g ai/ha): 0; Plant response rating, Blackgrass ([17]; 500 g ai/ha): 0; Plant response rating, Galium ([18]; 125 g ai/ha): 0; Plant response rating, Galium ([18]; 500 g ai/ha): 0
2 | O=C(Nc1ccccc1C(F)(F)F)C1C(=O)OCC1c1cccc(C(F)(F)F)c1 (racemic) [Compound 14] | 0 | 0 | 0 | 0 | 20 | 20 | 0 | 20 | 0 | 0 | 0 | 20 | 70 | 90 | 0 | 0 | 0 | 20 | 0 | 0 | Plant response rating, Ragweed ([12]; 125 g ai/ha): 0; Plant response rating, Ragweed ([12]; 500 g ai/ha): 0; Plant response rating, Ryegrass, Italian ([13]; 125 g ai/ha): 0; Plant response rating, Ryegrass, Italian ([13]; 500 g ai/ha): 0; Plant response rating, Foxtail, Giant ([14]; 125 g ai/ha): 20; Plant response rating, Foxtail, Giant ([14]; 500 g ai/ha): 70; Plant response rating, Wheat ([15]; 125 g ai/ha): 0; Plant response rating, Wheat ([15]; 500 g ai/ha): 0; Plant response rating, Corn (corn (Zea mays); 125 g ai/ha): 0; Plant response rating, Corn (corn (Zea mays); 500 g ai/ha): 0; Plant response rating, Pigweed ([16]; 125 g ai/ha): 0; Plant response rating, Pigweed ([16]; 500 g ai/ha): 0; Plant response rating, Blackgrass ([17]; 125 g ai/ha): 0; Plant response rating, Blackgrass ([17]; 500 g ai/ha): 30; Plant response rating, Galium ([18]; 125 g ai/ha): 0; Plant response rating, Galium ([18]; 500 g ai/ha): 30
3 | O=C(Nc1ccccc1C(F)(F)F)C1C(=O)OCC1c1ccc(F)c(C(F)(F)F)c1 (racemic) [Compound 17] | 0 | 0 | 0 | 0 | 0 | 0 | 0 | 0 | 0 | 0 | 0 | 0 | 20 | 60 | 0 | 0 | 0 | 0 | 0 | 0 | Plant response rating, Ragweed ([12]; 125 g ai/ha): 0; Plant response rating, Ragweed ([12]; 500 g ai/ha): 0; Plant response rating, Ryegrass, Italian ([13]; 125 g ai/ha): 0; Plant response rating, Ryegrass, Italian ([13]; 500 g ai/ha): 0; Plant response rating, Foxtail, Giant ([14]; 125 g ai/ha): 0; Plant response rating, Foxtail, Giant ([14]; 500 g ai/ha): 20; Plant response rating, Wheat ([15]; 125 g ai/ha): 0; Plant response rating, Wheat ([15]; 500 g ai/ha): 0; Plant response rating, Corn (corn (Zea mays); 125 g ai/ha): 0; Plant response rating, Corn (corn (Zea mays); 500 g ai/ha): 0; Plant response rating, Pigweed ([16]; 125 g ai/ha): 0; Plant response rating, Pigweed ([16]; 500 g ai/ha): 0; Plant response rating, Blackgrass ([17]; 125 g ai/ha): 0; Plant response rating, Blackgrass ([17]; 500 g ai/ha): 0; Plant response rating, Galium ([18]; 125 g ai/ha): 0; Plant response rating, Galium ([18]; 500 g ai/ha): 0
4 | O=C(Nc1cccc(F)c1F)C1C(=O)OCC1c1ccc(F)c(C(F)(F)F)c1 (racemic) [Compound 15] | 0 | 0 | 0 | 0 | 40 | 70 | 0 | 0 | 0 | 0 | 0 | 40 | 70 | 90 | 0 | 0 | 30 | 70 | 0 | 0 | Plant response rating, Ragweed ([12]; 125 g ai/ha): 0; Plant response rating, Ragweed ([12]; 500 g ai/ha): 0; Plant response rating, Ryegrass, Italian ([13]; 125 g ai/ha): 0; Plant response rating, Ryegrass, Italian ([13]; 500 g ai/ha): 20; Plant response rating, Foxtail, Giant ([14]; 125 g ai/ha): 30; Plant response rating, Foxtail, Giant ([14]; 500 g ai/ha): 70; Plant response rating, Wheat ([15]; 125 g ai/ha): 0; Plant response rating, Wheat ([15]; 500 g ai/ha): 20; Plant response rating, Corn (corn (Zea mays); 125 g ai/ha): 0; Plant response rating, Corn (corn (Zea mays); 500 g ai/ha): 20; Plant response rating, Pigweed ([16]; 125 g ai/ha): 0; Plant response rating, Pigweed ([16]; 500 g ai/ha): 0; Plant response rating, Blackgrass ([17]; 125 g ai/ha): 0; Plant response rating, Blackgrass ([17]; 500 g ai/ha): 20; Plant response rating, Galium ([18]; 125 g ai/ha): 0; Plant response rating, Galium ([18]; 500 g ai/ha): 20
5 | O=C(Nc1ccccc1F)C1C(=O)OCC1c1cccc(C(F)(F)F)c1 (racemic) [Compound 11] | 0 | 0 | 0 | 0 | 30 | 80 | 0 | 0 | 0 | 0 | 0 | 0 | 70 | 80 | 0 | 0 | 10 | 40 | 0 | 0 | Plant response rating, Ragweed ([12]; 125 g ai/ha): 0; Plant response rating, Ragweed ([12]; 500 g ai/ha): 0; Plant response rating, Ryegrass, Italian ([13]; 125 g ai/ha): 0; Plant response rating, Ryegrass, Italian ([13]; 500 g ai/ha): 0; Plant response rating, Foxtail, Giant ([14]; 125 g ai/ha): 20; Plant response rating, Foxtail, Giant ([14]; 500 g ai/ha): 60; Plant response rating, Wheat ([15]; 125 g ai/ha): 0; Plant response rating, Wheat ([15]; 500 g ai/ha): 20; Plant response rating, Corn (corn (Zea mays); 125 g ai/ha): 0; Plant response rating, Corn (corn (Zea mays); 500 g ai/ha): 0; Plant response rating, Pigweed ([16]; 125 g ai/ha): 0; Plant response rating, Pigweed ([16]; 500 g ai/ha): 0; Plant response rating, Blackgrass ([17]; 125 g ai/ha): 0; Plant response rating, Blackgrass ([17]; 500 g ai/ha): 0; Plant response rating, Galium ([18]; 125 g ai/ha): 0; Plant response rating, Galium ([18]; 500 g ai/ha): 0
